The assay has as its target T1, human CaSR (Homo sapiens, UniProt P41180).
T1 sequence (P41180 20-1078): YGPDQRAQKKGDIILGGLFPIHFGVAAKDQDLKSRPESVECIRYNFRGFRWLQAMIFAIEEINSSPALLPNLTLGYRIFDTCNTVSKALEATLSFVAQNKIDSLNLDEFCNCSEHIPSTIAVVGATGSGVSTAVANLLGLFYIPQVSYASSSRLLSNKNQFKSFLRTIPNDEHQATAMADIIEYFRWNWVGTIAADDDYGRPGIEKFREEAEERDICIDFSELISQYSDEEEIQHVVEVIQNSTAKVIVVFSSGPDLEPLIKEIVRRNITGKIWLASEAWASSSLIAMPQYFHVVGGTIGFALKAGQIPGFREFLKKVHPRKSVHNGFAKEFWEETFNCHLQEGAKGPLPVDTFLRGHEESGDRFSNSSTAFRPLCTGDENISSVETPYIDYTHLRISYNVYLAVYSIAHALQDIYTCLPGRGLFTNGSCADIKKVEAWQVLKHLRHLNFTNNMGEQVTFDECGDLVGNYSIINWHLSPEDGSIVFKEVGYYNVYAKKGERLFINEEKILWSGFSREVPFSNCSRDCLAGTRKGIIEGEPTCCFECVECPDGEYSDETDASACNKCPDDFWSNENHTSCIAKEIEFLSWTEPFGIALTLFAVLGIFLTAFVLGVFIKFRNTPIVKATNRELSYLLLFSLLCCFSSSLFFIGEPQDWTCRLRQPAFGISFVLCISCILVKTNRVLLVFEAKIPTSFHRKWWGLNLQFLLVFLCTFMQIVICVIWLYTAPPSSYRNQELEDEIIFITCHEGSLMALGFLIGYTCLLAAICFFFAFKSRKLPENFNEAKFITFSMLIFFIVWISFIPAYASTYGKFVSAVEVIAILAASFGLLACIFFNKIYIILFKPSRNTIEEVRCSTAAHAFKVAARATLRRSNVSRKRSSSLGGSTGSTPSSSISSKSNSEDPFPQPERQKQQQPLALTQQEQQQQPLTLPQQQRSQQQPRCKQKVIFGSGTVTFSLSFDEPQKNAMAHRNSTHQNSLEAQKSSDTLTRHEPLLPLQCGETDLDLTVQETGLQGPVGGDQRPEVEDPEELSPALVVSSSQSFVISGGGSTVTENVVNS
Put plainly: Functional whole cell assay (modulation of human CaSR), IP1 accumulation in CHO-K1 cells. The format is cell-based. Particulars: CHO-K1 cells stably expressing human CaSR, final Ca2+ 1.9 mM, IP1 HTRF; concentration giving 50% of maximum agonistic response. From the text: The assay investigates a compound's functional ability to act as a biological positive modulator on the human CaSR. Activation of the receptor expressed on CHO-K1 cells is detected through the G alpha q pathway, the activation of phospholipase C and the accumulation of intracellular inositol phosphate (IP) as described earlier [Sandrine Ferry, Bruno Chatel, Robert H. Dodd, Christine Lair, Danielle Gully, Jean-Pierre Maffrand, and Martial Ruat. Effects of Divalent Cations and of a Calcimimetic on Adrenocorticotropic Hormone Release in Pituitary Tumor Cells. Biochemical and biophysical research Communications 238, 866-873 (1997)]. The human CaSR is stably expressed on a CHO-K1 cell clone, stimulated with a basal level of calcium and challenged with the tested compound. The level of IP1 is determined using the IP-One Terbium htrf kit (Cisbio, France). CHO-K1 cells not transfected with the CaSR fail to elicit an IP1 response upon calcium and/or compound stimulation.
The ORF coding for the human CaSR (genebank: NM_000388) was acquired from Invitrogen Corp, USA and subsequently cloned into the mammalian expression vector pCDA3.1.
CHO-K1 cells were transfected using Lipofectamine according to manufacturer's protocol (400.000 cells/well were seeded in a 6-well plate and transfected after 24 hours using 2 μg DNA and 5 μl lipofectamine). After another 24 hours the cells were detached, seeded and subjected to 1 mg/ml of G-418. Following 7 days growth single clones were picked, the CaSR expression evaluated using the 5C10 antibody against CaSR, the clones with the highest expression were selected and tested for functional response. The preferred clone was cultured according to standard procedures described in ATCC (American Type Culture Collection) protocols for CHO-K1 with the addition of 500 μg/ml G-418.
On the assay day, cells were thawed, harvested and resuspended to 4*10^6 cells/ml in stimulation buffer (containing: Hepes 10 mM, MgCl2 0.5 mM, KCl 4.2 mM, NaCl 146 mM, glucose 5.5 mM, LiCl 50 mM, BSA 0.5% at pH 7.4). Ten μl cell solution was pipetted into wells of a white 384-well plate (Perkin Elmer Optiplate) containing 2 μl compound diluted in assay buffer (containing: Hepes 10 mM, MgCl2 0.5 mM, KCl 4.2 mM, NaCl 146 mM, glucose 5.5 mM, LiCl 50 mM, CaCl2 11.4 mM at pH 7.4), resulting in a final Ca^2+ concentration of 1.9 mM. After compound stimulation for 1 hour at 37° C. and 15 min at room temperature, 10 ul of IP-One assay detection reagent (prepared as described by the IP-One assay kit manufacturer) was added and the plate was incubated for another 1 hour at room temperature. Finally the plate was read using a Perkin Elmer EnVision, according to the protocol supplied by the IP-One assay kit manufacturer. The FRET ratio was calculated by dividing the 665 nm emission signal with that of the 615 nm.
The molar concentration of a compound that produces 50% of the maximum agonistic response (the […] value) is calculated according to the equation “General sigmoidal curve with Hill slope, a to d” (Equation 1). This model describes a sigmoidal curve with an adjustable baseline. The equation can be used to fit curves where response is either increasing or decreasing with respect to the independent variable, X.
y=(a−d)/(1+(x/c)̂b)+d Equation 1.
Take `COc1cc([C@@H](C)N[C@H]2CC[C@@H](c3ccc(C(=O)NCCNC(=O)C(O)CO)cc3)C2)ccc1F` (stereo partly drawn) [Compound 102, N-[2-(2,3-Dihydroxypropanoylamino)ethyl]-4-[(1R,3S)-3-[[(1R)-1-(4-fluoro-3-methoxy-phenyl)ethyl]amino]cyclopentyl]benzamide]: the EC50 – broadly, the concentration that produces a half-maximal response – was in the range of 200 to 1000 nM.
The compound `COc1cc([C@@H](C)N[C@H]2CC[C@@H](c3ccc(C(=O)NCCNC(=O)C(N)=O)cc3)C2)ccc1F` [Compound 104, N-[2-[[4-[(1R,3S)-3-[[(1R)-1-(4-Fluoro-3-methoxy-phenyl)ethyl]amino]cyclopentyl]benzoyl]amino]ethyl]oxamide] yielded a concentration for a half-maximal effect (EC50) below 200 nM.
`COc1cc([C@@H](C)N[C@H]2CC[C@@H](c3ccc(C(=O)NCCNC(=O)CS(C)(=O)=O)cc3)C2)ccc1F` [Compound 105, 4-[(1R,3S)-3-[[(1R)-1-(4-Fluoro-3-methoxy-phenyl)ethyl]amino]-cyclopentyl]-N-[2-[(2-methylsulfonylacetyl)amino]ethyl]benzamide] showed a concentration for a half-maximal effect (EC50) below 200 nM.
In turn, `COc1cc([C@@H](C)N[C@H]2CC[C@@H](c3ccc(C(=O)NCCNC(=O)CO)cc3)C2)ccc1F` [Compound 103, 4-[(1R,3S)-3-[[(1R)-1-(4-Fluoro-3-methoxy-phenyl)ethyl]amino]cyclopentyl]-N-[2-[(2-hydroxyacetyl)amino]ethyl]benzamide] returned an EC50 below 200 nM.
Then `COc1cc([C@@H](C)N[C@H]2CC[C@@H](c3ccc(C(=O)NCCNC(=O)c4nc[nH]n4)cc3)C2)ccc1F` [Compound 101, N-[2-[[4-[(1R,3S)-3-[[(1R)-1-(4-Fluoro-3-methoxy-phenyl)ethyl]-amino]cyclopentyl]benzoyl]amino]ethyl]-1H-1,2,4-triazole-3-carboxamide], with below 200 nM.
